The text below walks through data of patent US20230176038A1, “Methods for Identifying Modulators of Insect Transient Receptor Potential Channels” (BASF Corporation, priority 2019, published 2023).

As usually defined, the EC50 is the concentration giving half of the maximal effect. What is called Kd is the concentration at which binding is half-saturated.

Assay [1] addresses T1, complexes formed by Nanchung and Water witch proteins (Wtrw + Nan) (Drosophila melanogaster, UniProt Q9VHY7+Q9VUD5).
T1 construct: adenoviral co-expression in CHO-K1 cells, fluo-4 calcium FLIPR
T1 sequence (Q9VUD5 1-833): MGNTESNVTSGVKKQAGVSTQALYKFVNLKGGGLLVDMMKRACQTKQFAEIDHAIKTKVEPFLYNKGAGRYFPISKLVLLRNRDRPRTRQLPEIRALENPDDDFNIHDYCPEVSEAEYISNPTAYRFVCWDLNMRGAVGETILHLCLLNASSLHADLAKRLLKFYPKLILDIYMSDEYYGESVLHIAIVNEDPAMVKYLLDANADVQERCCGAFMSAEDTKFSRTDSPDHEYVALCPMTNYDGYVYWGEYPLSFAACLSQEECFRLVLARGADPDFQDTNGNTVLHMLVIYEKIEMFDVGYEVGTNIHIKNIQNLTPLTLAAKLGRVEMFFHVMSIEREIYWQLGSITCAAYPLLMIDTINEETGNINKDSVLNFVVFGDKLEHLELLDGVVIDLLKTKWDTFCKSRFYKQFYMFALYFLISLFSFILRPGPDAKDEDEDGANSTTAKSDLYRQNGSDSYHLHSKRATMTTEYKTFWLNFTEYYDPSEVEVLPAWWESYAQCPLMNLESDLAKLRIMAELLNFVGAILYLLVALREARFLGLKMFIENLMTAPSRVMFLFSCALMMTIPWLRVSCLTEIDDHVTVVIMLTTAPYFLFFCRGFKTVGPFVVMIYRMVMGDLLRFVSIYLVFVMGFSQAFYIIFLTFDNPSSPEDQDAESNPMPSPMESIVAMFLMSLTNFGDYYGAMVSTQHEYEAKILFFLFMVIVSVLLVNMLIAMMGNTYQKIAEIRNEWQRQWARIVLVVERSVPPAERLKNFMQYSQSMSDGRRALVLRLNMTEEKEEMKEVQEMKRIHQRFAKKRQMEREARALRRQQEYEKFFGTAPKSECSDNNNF
T1 sequence (Q9VHY7 1-986): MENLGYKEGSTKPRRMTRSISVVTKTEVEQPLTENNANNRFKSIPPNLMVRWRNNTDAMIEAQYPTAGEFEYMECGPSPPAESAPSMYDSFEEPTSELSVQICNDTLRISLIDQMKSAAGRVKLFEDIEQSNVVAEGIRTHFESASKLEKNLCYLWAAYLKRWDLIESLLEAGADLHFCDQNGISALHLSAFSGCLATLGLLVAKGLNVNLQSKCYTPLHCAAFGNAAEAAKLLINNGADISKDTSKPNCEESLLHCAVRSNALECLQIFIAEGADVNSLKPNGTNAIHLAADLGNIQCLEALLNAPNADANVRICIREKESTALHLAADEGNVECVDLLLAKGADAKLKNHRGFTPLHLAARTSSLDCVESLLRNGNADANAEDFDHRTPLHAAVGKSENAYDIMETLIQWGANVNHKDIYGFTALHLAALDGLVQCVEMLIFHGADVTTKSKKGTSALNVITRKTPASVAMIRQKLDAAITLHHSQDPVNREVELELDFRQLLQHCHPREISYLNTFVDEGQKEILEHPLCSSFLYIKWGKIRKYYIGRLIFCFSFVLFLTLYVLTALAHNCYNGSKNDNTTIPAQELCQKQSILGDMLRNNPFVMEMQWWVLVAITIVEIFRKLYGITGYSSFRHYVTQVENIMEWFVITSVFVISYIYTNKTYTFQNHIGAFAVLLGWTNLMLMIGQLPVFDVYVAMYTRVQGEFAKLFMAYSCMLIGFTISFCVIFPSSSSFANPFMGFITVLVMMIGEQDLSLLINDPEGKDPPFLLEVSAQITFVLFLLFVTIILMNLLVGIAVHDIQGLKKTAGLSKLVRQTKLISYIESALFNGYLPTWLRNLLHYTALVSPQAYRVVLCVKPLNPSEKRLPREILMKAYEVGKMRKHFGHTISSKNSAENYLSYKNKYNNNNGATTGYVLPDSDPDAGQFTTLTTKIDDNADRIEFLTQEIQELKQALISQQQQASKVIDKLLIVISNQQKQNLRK
The experiment in a line: Calcium mobilization (fluo-4AM, FLIPR-TETRA) in CHO-K1 cells co-expressing Water witch and Nanchung. The assay is classed as cell-based. Particulars: FIG. 2B; hamster CHO-K1 cells, adenovirus; Wtrw (SEQ ID NO 63) C-terminal FLAG/AcGFP, Nan (SEQ ID NO 7) C-terminal HA/mCherry; fluo-4AM, 20 mM CaCl2, 0.2% DMSO, 10 min; read-out: Wtrw + Nan (Water witch:Nanchung complex) EC50 (calcium response). Background: A change in cytosolic calcium serves as a functional read-out for many receptors and channels.

Assay [2] relates to Nanchung and Water witch (Nan + Wtrw) complexes. The experiment in a line: Calcium mobilization (fluo-4, FLIPR) in CHO-K1 cells co-expressing Nanchung and Water witch. Conditions: for Ca2+ mobilization response: CHO-K1 cells co-expressing Nanchung and Water witch.
Excerpt: (§1) DNAs encoding for tagged TRP channels were delivered into CHO-K1 cells using adenoviruses. Adenovirus-mediated gene delivery allowed for expression of the gene of interest, optimize expression levels and stoichiometry of subunits, as well as prevention of possible toxic effects of insect TRP channels by maintaining virus-infected cells at room temperature.
(§2) To test the hypothesis that Water witch may also be involved in the action of PM and AP, Water witch was expressed in CHO-K1 cells either alone or in combination with Nanchung. Given that TRP channels are permeable for Ca2+, cell responces were measured by monitoring Ca2+ mobilization using Ca2+ sensitive fluorescent probe FLUO4.
(§3) Hamster CHO-K1 cells (ATCC ® CCL-61TM) were infected with adenoviruses expressing TRP channels individually or in combinations. The cells were kept overnight at 37° C., followed by 3 days at 25° C. The medium was changed two days after seeding. Calcium mobilization was detected using fluorescent calcium probe fluo-4AM (Life Technologies) and measured by FLIPR-TETRA instrument (Molecular Devices, Sunnyvale, CA). The cells were loaded with 50 µl of Hank’s buffered salt solution (HBSS) containing 4 µM fluo-4AM, 5 mM probenecid, 20 mM CaCl2, and 0.02% pluoronic for 2 hours at 25° C. The dye was then discarded, 50 µl of HBSS were added. The test compounds were dissolved in DMSO and added to the cells in 50 µl HBSS, yielding a final DMSO concentration of 0.2%. Fluorescence was monitored for 10 minutes at 1 second intervals at 470-495 nm/515-575 nm excitation/emission wavelengths. EC50 values were calculated using GraphPad Prism (GraphPad Software).
Assay [3] addresses Nanchung (Nan) protein alone (Drosophila melanogaster, UniProt A0ACM8PYI9). The experiment in a line: [3H]-afidopyropen saturation binding to membranes of CHO-K1 cells expressing Nanchung alone. Particulars: membranes from CHO-K1 cells expressing Nanchung individually; read-out: Kd, specific binding of tritium-labeled afidopyropen.
In assay [4] the target is complexes formed by Nanchung protein and Water witch protein (Nan + Wtrw) (Drosophila melanogaster, UniProt A0ACM8PYI9). The experiment in a line: biochemical. The assay is classed as binding. Particulars: for Inhibition of binding of tritiated afidopyropen: membranes from cells co-expressing Nanchung and Water witch.
Assay [5] has as its system Water witch (Wtrw) protein alone. The experiment in a line: [3H]-afidopyropen saturation binding to membranes expressing Water witch alone. Also noted: species or system Drosophila melanogaster.
Assay [6] has as its system Nanchung (Nan). Conditions: previously shown; cited from earlier work.
The subject of assay [7] is Nanchung and Inactive (Nan + Iav) complexes. The experiment in a line: Calcium mobilization in CHO-K1 cells co-expressing Nanchung and Inactive. It is filed as cell-based, Drosophila melanogaster.
Assay [8] relates to Nanchung (Nan). The experiment in a line: Calcium mobilization in CHO-K1 cells expressing Nanchung alone. Particulars: CHO-K1 cells expressing Nanchung individually. The assay is classed as cell-based, Drosophila melanogaster.
Assay [9] relates to Inactive and Water witch (Iav + Wtrw). The experiment in a line: Calcium mobilization in CHO-K1 cells co-expressing Inactive and Water witch. The assay is classed as cell-based, Drosophila melanogaster.
Assay [10] relates to parental mammalian cells (CHO-K1). The experiment in a line: Calcium mobilization in parental mammalian cells. It is filed as cell-based, hamster. Conditions: prior to infection.
For assay [11], the system named is Water witch (Wtrw). The experiment in a line: Calcium mobilization in CHO-K1 cells expressing Water witch alone. Conditions: CHO-K1 cells expressing Water witch individually.
Excerpt: as §1, §2, §3
For assay [12], the system named is complexes formed by Nanchung protein and Inactive protein. The experiment in a line: [3H]-afidopyropen competition binding to membranes of cells co-expressing Nanchung and Inactive. Also noted: species or system Drosophila melanogaster. Particulars: membranes from cells co-expressing Nanchung and Inactive.
The target in assay [13] is T2, Drosophila melanogaster Water witch fused at its carboxyl terminus with FLAG tags and AcGFP fluorescent … (Drosophila melanogaster).
T2 construct: TRPA channel subunit expressed in hamster CHO-K1 cells by adenovirus; also called Wtrw-FLAG; FLAG-tagged Water witch; not shown: FLAG tags and AcGFP fused in-frame at the carboxyl terminus
T2 chain: T1 sequence (Q9VHY7 1-986)
The experiment in a line: co-immunoprecipitation from lysates of adenovirus-transduced CHO-K1 cells; anti-FLAG M2 affinity gel, Western blot with anti-HA. (In general: Immunoblotting shows a protein as a band on a membrane.)

As to `C[C@]1(COC(=O)C2CC2)[C@@H]2C[C@H](O)[C@@]3(C)Oc4cc(-c5cccnc5)oc(=O)c4[C@H](O)[C@@H]3[C@@]2(C)CC[C@@H]1OC(=O)C1CC1` [AP, afidopyropen], the half-maximal effective concentration (EC50) in assay [1] stood at 39 nM.

Turning to `NC(=O)c1cnccc1C(F)(F)F` [TFNA-AM, 4-trifluoronicotinamide], the “Ca2+ mobilization response” value in [2] is “without effect”.

Consider `C[C@]1(COC(=O)C2CC2)[C@@H]2C[C@H](O)[C@@]3(C)Oc4cc(-c5cccnc5)oc(=O)c4[C@H](O)[C@@H]3[C@@]2(C)CC[C@@H]1OC(=O)C1CC1` [afidopyropen], for which the equilibrium dissociation constant (Kd) in [3] was 4.5 nM; in [4], 0.048 nM. Further, the “Binding of tritiated afidopyropen” value in assay [5] was “negligible”. Further, the “Response of Nanchung alone to stimulation” value in assay [6] is reported as “does not respond”. Moreover, the “Ca2+ mobilization response” value in assay [2] is listed as “elicited calcium mobilization”.

On to `C=CCN=C=S` [allyl isothiocyanate], for which the “Ca2+ mobilization response” value is listed as “not responsive” in assay [7]; “nor in cells expressing Nancung (Nan)” in [8]; “activation of Ca2+ mobilization” in assay [9]; “not in parental mammalian cells” in assay [10]; “efficiently activated” in assay [11]; “efficiently activated” in assay [2].

`O=CC=Cc1ccccc1` [cinnamaldehyde]: the “Ca2+ mobilization response” value was “not responsive” in assay [7]; “nor in cells expressing Nancung (Nan)” in [8]; “activation of Ca2+ mobilization” in assay [9]; “not in parental mammalian cells” in assay [10]; “efficiently activated” in assay [11]; “efficiently activated” in assay [2].

As to `N#CCNC(=O)c1cnccc1C(F)(F)F` [flonicamid], the “Ca2+ mobilization response” value in assay [2] was “without effect”.

With `NC(=O)c1cccnc1` [nicotinamide], the “Ca2+ mobilization response” value in [7] is reported as “evoked Ca2+ response”; in [10], “not in parental mammalian cells”; in assay [11], “not in the cells expressing these proteins individually”; in assay [2] it was “evoked Ca2+ response”. Besides, the “Inhibition of binding of tritiated afidopyropen” value in assay [4] and in assay [12] was “completely inhibited binding” each time. For the same molecule, the “Potency and efficacy of activation, Nanchung:Inactive compared with Nanchung:Water witch complexes” value in [2] (dose response of calcium responses, FIG. 4B) is “nearly identical potency and efficacy”.

On to `CC1=NNC(=O)N(/N=C/c2cccnc2)C1` [pymetrozine], for which the “Inhibition of binding of tritiated afidopyropen” value in [4] and in [12] was “completely inhibited binding” each time. Further, in assay [6], the “Response of Nanchung alone to stimulation” value is “does not respond”. The “Ca2+ mobilization response” value in assay [2] is “elicited calcium mobilization”.

B1: Drosophila melanogaster Nanchung fused at its carboxyl terminus with HA tags and mCherry fluorescent protein (other)
chain: T1 sequence (Q9VUD5 1-833)
notes: TRPV channel subunit expressed in hamster CHO-K1 cells by adenovirus; For the co-immunoprecipitation the cells were lysed in Triton X-100 buffer; also called Nan-HA; HA-tagged Nanchung; not shown: HA tags and mCherry fused in-frame at the carboxyl terminus
Regarding B1, the binding result in assay [13] is reported as “binds”.
